{"source": "paper PMC4942781", "about": "“A sodium channel inhibitor ISTX-I with a novel structure provides a new hint at the evolutionary link between two toxin folds” (Scientific Reports, 2016)", "target": "T1, hNav1.7 (Homo sapiens, UniProt Q15858)", "T1 construct": "expressed in transfected cells; host or cells: HEK293T cells, transient transfection (Lipofectamine-2000)", "T1 sequence (Q15858 whole entry)": "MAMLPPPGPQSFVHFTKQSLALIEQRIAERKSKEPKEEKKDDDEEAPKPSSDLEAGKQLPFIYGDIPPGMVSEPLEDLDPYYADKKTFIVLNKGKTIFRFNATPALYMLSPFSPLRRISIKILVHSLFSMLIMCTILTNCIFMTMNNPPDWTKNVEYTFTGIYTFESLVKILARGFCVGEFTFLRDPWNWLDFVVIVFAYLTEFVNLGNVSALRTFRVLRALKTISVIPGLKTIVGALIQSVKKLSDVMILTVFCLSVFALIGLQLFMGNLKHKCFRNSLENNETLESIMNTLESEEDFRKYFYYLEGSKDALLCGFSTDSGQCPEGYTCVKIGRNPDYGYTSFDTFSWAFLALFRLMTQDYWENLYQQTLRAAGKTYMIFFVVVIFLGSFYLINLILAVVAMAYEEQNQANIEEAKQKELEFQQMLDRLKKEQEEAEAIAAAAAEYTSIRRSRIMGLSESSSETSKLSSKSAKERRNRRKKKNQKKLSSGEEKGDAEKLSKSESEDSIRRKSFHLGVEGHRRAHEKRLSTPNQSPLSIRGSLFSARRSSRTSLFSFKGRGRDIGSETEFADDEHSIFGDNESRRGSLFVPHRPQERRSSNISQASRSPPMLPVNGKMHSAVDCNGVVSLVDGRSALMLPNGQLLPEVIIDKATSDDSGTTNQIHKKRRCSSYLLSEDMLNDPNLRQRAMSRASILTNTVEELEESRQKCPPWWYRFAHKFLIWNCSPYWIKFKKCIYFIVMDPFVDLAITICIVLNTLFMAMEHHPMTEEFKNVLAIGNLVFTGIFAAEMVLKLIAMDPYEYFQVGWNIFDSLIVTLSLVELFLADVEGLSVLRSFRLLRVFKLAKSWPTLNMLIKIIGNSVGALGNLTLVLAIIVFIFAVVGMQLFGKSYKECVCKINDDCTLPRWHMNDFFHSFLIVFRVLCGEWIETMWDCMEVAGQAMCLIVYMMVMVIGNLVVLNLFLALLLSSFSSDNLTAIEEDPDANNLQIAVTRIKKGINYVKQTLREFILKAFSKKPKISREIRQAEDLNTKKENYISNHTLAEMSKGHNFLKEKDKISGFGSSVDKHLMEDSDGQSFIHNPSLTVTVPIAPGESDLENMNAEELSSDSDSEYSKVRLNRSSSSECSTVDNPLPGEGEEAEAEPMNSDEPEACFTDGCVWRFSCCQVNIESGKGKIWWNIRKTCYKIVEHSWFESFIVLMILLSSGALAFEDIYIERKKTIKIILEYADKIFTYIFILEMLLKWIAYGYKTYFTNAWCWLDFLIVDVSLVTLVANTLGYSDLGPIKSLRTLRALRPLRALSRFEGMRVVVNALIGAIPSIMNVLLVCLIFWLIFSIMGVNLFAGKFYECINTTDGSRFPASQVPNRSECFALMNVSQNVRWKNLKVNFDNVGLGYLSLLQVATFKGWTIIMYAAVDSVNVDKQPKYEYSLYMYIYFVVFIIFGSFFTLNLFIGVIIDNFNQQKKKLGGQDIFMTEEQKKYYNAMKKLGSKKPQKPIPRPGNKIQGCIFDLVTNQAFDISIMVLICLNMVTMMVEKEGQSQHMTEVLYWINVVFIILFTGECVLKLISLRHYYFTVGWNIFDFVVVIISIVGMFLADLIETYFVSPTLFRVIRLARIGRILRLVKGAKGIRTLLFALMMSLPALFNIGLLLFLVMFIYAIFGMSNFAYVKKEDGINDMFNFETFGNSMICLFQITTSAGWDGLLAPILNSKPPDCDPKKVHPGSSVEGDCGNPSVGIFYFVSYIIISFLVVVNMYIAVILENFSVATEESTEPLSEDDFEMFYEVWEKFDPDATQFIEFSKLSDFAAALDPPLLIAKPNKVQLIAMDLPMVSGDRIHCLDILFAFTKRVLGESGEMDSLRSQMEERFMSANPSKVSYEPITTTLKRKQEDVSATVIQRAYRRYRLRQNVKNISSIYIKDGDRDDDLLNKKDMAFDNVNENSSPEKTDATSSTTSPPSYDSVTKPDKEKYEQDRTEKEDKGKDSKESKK", "T1 sequence (Q07699 19-218, further chain)": "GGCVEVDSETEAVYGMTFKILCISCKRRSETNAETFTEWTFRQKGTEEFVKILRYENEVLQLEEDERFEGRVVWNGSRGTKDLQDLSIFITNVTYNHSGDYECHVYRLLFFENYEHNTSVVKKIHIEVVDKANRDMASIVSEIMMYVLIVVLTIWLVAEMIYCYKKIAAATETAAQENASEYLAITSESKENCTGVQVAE", "test": "Whole-cell patch clamp, hNav1.7 in HEK293T cells", "assay_type": "cell-based", "protocol": "Figure 4 Effects of ISTX-I expressed in HEK293 cells. Current traces were evoked with a 50ms step depolarization to −10 mV from a holding potential of −80 mV every 5s. […] (E) Steady-state inactivation of the hNav1.7 channel before (solid circles) and after (open circles) the application of 10 μM ISTX-I (n = 5).\nThe effects of ISTX-I on the activation and inactivation kinetics of hNav1.7 were also analyzed. The current-voltage relationships were determined for Nav1.7 channels using step depolarization ranging from −80 to +40 mV from a holding potential of −80 mV.\nHEK293T (human embryonic kidney) cells were grown in DMEM containing 10% heat-inactivated FBS at 37 °C in a 5% CO2 incubator. The cDNA genes encoding human (h)Nav1.1, (h)Nav1.2, (h)Nav1.3, (h)Nav1.4, (h)Nav1.5, (h)Nav1.6 and (h)Nav1.7 were transiently transfected into HEK293T cells for electrophysiology using Lipofectamine-2000 (Invitrogen) in serum-reduced medium (Opti-MEM, Invitrogen) following the manufacturer’s instructions. The auxiliary subunits hβ1 and enhanced green florescent protein plasmids were cotransfected into HEK293T cells to increase the current density and efficiently select cells with green florescent protein for whole-cell patch-clamp recordings. After 12 h, the HEK293T cells were used for electrophysiological analysis.\nDRG neurons with a large diameter (>[…]) and those with a relatively small diameter (<[…]) were chosen by measuring TTX-s and TTX-r currents, respectively. Meanwhile, TTX (final concentration at 100 nM) was used to separate TTX-r sodium currents from TTX-s sodium currents. Suction pipettes (2.0–4.0 MΩ) were made of borosilicate glass capillary tubes with two-step pulling on a vertical micropipette puller (PC-10, Narishige). Potassium, calcium, and sodium currents were recorded in experimental cells using whole-cell patch-clamp recordings at room temperature, which were performed with an HEK EPC10 patch-clamp amplifier. The P/4 protocol was used to subtract linear capacitive and leakage currents. Experimental data were acquired and analyzed using the programs patch master and Sigmaplot 9.0 (Sigma, USA). All of the data points represent the mean ± SE (n = the number of separate experimental cells examined). Dose-response curves were fitted using the following Hill logistic equation: y = 1 − (1 − fmax)/[1 + ([Tx]/IC50)^n] in which n is an empirical Hill coefficient and fmax is the fraction of current resistant to inhibition at high toxin (Tx) concentrations.\nElectrophysiological studies.\nCurrents were recorded from experimental cells using whole-cell patch clamptechnique at room temperature (22–25 °C). The patch pipettes were fabricated from borosilicate glass tubing using a two-stage vertical microelectrode puller (PC-10, Narishige, Japan). […]", "key": {"[1]": {"conditions": "5 μM ISTX-I, step depolarization from −80 to +40 mV, holding −80 mV"}}, "note": "“Also recorded” adds a separate entry of the source. Bridge positions count the residues as written; N and C are the ends. Ends that are not written are not given here."}
{"sequence": "LCSENGDCAADECCVDTVFEGDMVTRSCEKTTGNFTECPGLTPIA (disulfide 2-14, 8-28, 13-38) [ISTX-I]", "values": [{"measurement": "effect on hNav1.7 channel currents", "setting": "1 μM ISTX-I, 50 ms step to −10 mV from −80 mV every 5 s", "value": "significantly depressed; also recorded: Inhibition of hNav1.7"}, {"measurement": "shift of conductance–voltage (G-V) curve", "setting": "[1]", "value": "no effect; also recorded: did not shift"}, {"measurement": "shift of current-voltage (I-V) curve", "setting": "[1]", "value": "no effect; also recorded: did not shift"}, {"measurement": "shift of steady-state inactivation curve", "setting": "10 μM ISTX-I, hNav1.7, n = 5", "value": "approximately −10 mV"}]}
